Experimental findings from patent US20250340560A1, “SUBSTITUTED PYRAZOLO[1,5-a]PYRIMIDINES AS BRUTON'S TYROSINE KINASE MODULATORS” (BEIGENE SWITZERLAND GMBH, priority 2013, published 2025) are described below.

The target of one assay is Recombinant Btk (Homo sapiens (Human), UniProt Q06187). Description: BTK kinase assay (TR-FRET). The following applies: IC50 (nM) Btk, 1 hour pre-incubation, ATP at Km. (In general: Time-resolved FRET reads energy transfer from a long-lived donor to a nearby acceptor.)
Recombinant Btk, sequence (Q06187 whole entry): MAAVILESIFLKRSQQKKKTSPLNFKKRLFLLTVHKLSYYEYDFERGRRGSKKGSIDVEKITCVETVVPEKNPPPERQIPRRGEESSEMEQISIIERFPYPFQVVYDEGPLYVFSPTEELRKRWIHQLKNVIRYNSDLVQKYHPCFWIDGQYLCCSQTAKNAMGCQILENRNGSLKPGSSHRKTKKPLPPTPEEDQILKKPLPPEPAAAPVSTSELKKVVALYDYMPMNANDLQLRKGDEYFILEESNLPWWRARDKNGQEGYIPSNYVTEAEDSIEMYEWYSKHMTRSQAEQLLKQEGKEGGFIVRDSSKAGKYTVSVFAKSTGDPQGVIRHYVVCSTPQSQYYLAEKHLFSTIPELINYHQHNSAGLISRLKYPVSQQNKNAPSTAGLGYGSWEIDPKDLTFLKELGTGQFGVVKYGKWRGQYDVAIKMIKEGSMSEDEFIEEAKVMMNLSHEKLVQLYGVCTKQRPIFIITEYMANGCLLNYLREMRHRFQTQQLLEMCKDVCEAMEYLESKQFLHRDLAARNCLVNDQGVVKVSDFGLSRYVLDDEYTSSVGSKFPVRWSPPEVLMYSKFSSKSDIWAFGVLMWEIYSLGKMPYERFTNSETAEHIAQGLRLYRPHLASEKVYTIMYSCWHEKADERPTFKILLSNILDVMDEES
The term IC50 denotes the concentration needed to halve the response being measured. In the case of `C=CC(=O)Nc1ccccc1C1CCNc2c(C(N)=O)c(-c3ccc(OCc4ccccc4)cc3)nn21` (single isomer, unassigned) [Compound 10a], the IC50 came out at 0.51 nM.

Still in this assay, the particulars now being: read-out: IC50 (nM) Btk; 1 hour pre-incubation, ATP at Km.
For the compound `C=CC(=O)N1CC[C@@H]2C(CNc3c(C(N)=O)c(-c4ccc(Oc5ccccc5)cc4)nn32)C1` (single isomer, unassigned) [Compound 30a], the half-maximal inhibitory concentration (IC50) was determined as 0.66 nM. The same measure, in the same setting: the same measure for `CC#CC(=O)NCC1CCNc2c(C(N)=O)c(-c3ccc(Oc4ccccc4)cc3)nn21` (stereo not shown) [Compound 185, 7-(But-2-ynamidomethyl)-2-(4-phenoxyphenyl)-4,5,6,7-tetrahydropyrazolo[1,5-a]pyrimidine-3-carboxamide]: 4.3 nM; for `CCC#CC(=O)N1CCC([C@@H]2CCNc3c(C(N)=O)c(-c4ccc(Oc5ccccc5)cc4)nn32)CC1` [Compound 186, (S)-7-(1-(Pent-2-ynoyl)piperidin-4-yl)-2-(4-phenoxyphenyl)-4,5,6,7-tetrahydropyrazolo[1,5-a]pyrimidine-3-carboxamide]: 1.1 nM; for `NC(=O)c1c(-c2ccc(Oc3ccccc3)cc2)nn2c1NCC[C@H]2C1CCN(C(=O)C#CCN2CCCC2)CC1` [Compound 187, (S)-2-(4-Phenoxyphenyl)-7-(1-(4-(pyrrolidin-1-yl)but-2-ynoyl)piperidin-4-yl)-4,5,6,7-tetrahydropyrazolo[1,5-a]pyrimidine-3-carboxamide]: 2.1 nM. As for `CN(C)CC#CC(=O)N1CCC([C@@H]2CCNc3c(C(N)=O)c(-c4ccc(Oc5ccccc5)cc4)nn32)CC1` [Compound 188, (S)-7-(1-(4-(Dimethylamino)but-2-ynoyl)piperidin-4-yl)-2-(4-phenoxyphenyl)-4,5,6,7-tetrahydropyrazolo[1,5-a]pyrimidine-3-carboxamide], the IC50 worked out at 1.1 nM. The same measure, in the same setting: the same measure for `CC#CC(=O)N1CC(C2CCNc3c(C(N)=O)c(-c4ccc(Oc5ccc(F)cc5F)cc4)nn32)C1` (stereo not shown) [Compound 189, 7-(1-(But-2-ynoyl)azetidin-3-yl)-2-(4-(2,4-difluorophenoxy)phenyl)-4,5,6,7-tetrahydropyrazolo[1,5-a]pyrimidine-3-carboxamide]: 42 nM. As to `CC#CC(=O)NCC1CCNc2c(C(N)=O)c(-c3ccc(Oc4ccc(F)cc4F)cc3)nn21` (stereo not shown) [Compound 190, 7-(But-2-ynamidomethyl)-2-(4-(2,4-difluorophenoxy)phenyl)-4,5,6,7-tetrahydropyrazolo[1,5-a]pyrimidine-3-carboxamide], the IC50 is 38 nM. `NC(=O)c1c(-c2ccc(Oc3ccccc3)cc2)nn2c1NCC[C@H]2C1CCN(C(=O)C#CCO)CC1` [Compound 191, (S)-7-(1-(4-Hydroxybut-2-ynoyl)piperidin-4-yl)-2-(4-phenoxyphenyl)-4,5,6,7-tetrahydropyrazolo[1,5-a]pyrimidine-3-carboxamide]: the IC50 came out at 0.67 nM. On the same count and under the same terms, the same measure for `COCC#CC(=O)N1CCC([C@@H]2CCNc3c(C(N)=O)c(-c4ccc(Oc5ccccc5)cc4)nn32)CC1` [Compound 192, (S)-7-(1-(4-Methoxybut-2-ynoyl)piperidin-4-yl)-2-(4-phenoxyphenyl)-4,5,6,7-tetrahydropyrazolo[1,5-a]pyrimidine-3-carboxamide]: 0.91 nM; for `CCCC#CC(=O)N1CCC([C@@H]2CCNc3c(C(N)=O)c(-c4ccc(Oc5ccccc5)cc4)nn32)CC1` [Compound 193, (S)-7-(1-(Hex-2-ynoyl)piperidin-4-yl)-2-(4-phenoxyphenyl)-4,5,6,7-tetrahydropyrazolo[1,5-a]pyrimidine-3-carboxamide]: 3.9 nM; for `CC#CC(=O)N1CCC(C2CCNc3c(C(N)=O)c(-c4ccc(Oc5ccc(F)cc5)cc4)nn32)CC1` (stereo not shown) [Compound 194, 7-(1-(But-2-ynoyl)piperidin-4-yl)-2-(4-(4-fluorophenoxy)phenyl)-4,5,6,7-tetrahydropyrazolo[1,5-a]pyrimidine-3-carboxamide]: 45 nM. For the compound `CC#CC(=O)N1CCC(C2CCNc3c(C(N)=O)c(-c4ccc(Oc5cccc(Cl)c5)cc4)nn32)CC1` (stereo not shown) [Compound 195, 7-(1-(But-2-ynoyl)piperidin-4-yl)-2-(4-(3-chlorophenoxy)phenyl)-4,5,6,7-tetrahydropyrazolo[1,5-a]pyrimidine-3-carboxamide], the half-maximal inhibitory concentration (IC50) was 8 nM.

As for `C=CC(=O)Nc1ccccc1C1CCNc2c(C(N)=O)c(-c3ccc(F)c(Cl)c3)nn21` (stereo not shown) [Compound 196, 7-(2-Acrylamidophenyl)-2-(3-chloro-4-fluorophenyl)-4,5,6,7-tetrahydropyrazolo[1,5-a]pyrimidine-3-carboxamide], the IC50 was 1.1 nM.

For a further assay, the target named is phosphorylated Btk at Tyr223 in Ramos cells (Homo sapiens (Human), UniProt Q06187). Briefly: BTK pY223 cellular assay (HTRF) in Ramos cells. The assay is classed as cell-based. The following applies: 1 hour compound incubation, pervanadate or Na3VO4 stimulation.
phosphorylated Btk at Tyr223 in Ramos cells, sequence (Q06187 whole entry): as above
Method: Btk pY223 cellular assay is a HTRF based assay intended to determine the endogenous levels of phosphorylated Btk at Tyr223.
Briefly, Ramos cells were serum starved in 0.5% FBS-containing RPMI1640 for 2 hours. Following starvation, the cells were incubated with compounds to be detected at various concentrations in a CO2 incubator for 1 hour. After incubation, cells were stimulated with 1 mM pervanadate (PV) or Na3VO4 (OV) for 20 min. Then, the cells were spinned down and lysed with 1× lysis buffer at RT for 10 min (4× lysis buffer supplied in the kit). During the incubation, 1× antibody mix was prepared by diluting anti-Btk-d2 and anti-pBtk-K in detection buffer (supplied in the kit). […] After that, 18 ul of cell lysate was transferred to the assay plate pre-loaded with antibody solution. After mixing gently and spinning briefly, the plate was sealed up and kept in dark at RT for 18 hours. […] IC50 values were calculated with GraphPad Prism software using the sigmoidal dose-response function.
`C=CC(=O)Nc1ccccc1C1CCNc2c(C(N)=O)c(-c3ccc(OCc4ccccc4)cc3)nn21` (single isomer, unassigned) [Compound 10a]: the IC50 turned out to be 2.2 nM.

`C=CC(=O)N1CC[C@@H]2C(CNc3c(C(N)=O)c(-c4ccc(Oc5ccccc5)cc4)nn32)C1` (single isomer, unassigned) [Compound 30a]: the IC50 turned out to be 5.6 nM.
